Assays:
Format in all cases: cell-based
Details in all cases: 75 mg/l, 48 h 37° C.
[1] = tested on: Providencia rettgeri 0706064; test: Peptidase detection on Columbia medium (Example 5); further: key: +++: good growth/high coloration strength; ++: medium growth/medium coloration strength; +: weak growth/weak coloration strength; −: no growth/no coloration
Description: (§1) After homogenization, the media were distributed into Petri dishes 55 mm in diameter. A medium acting as a growth control (Columbia) and denoted C was also poured.
(§2) Twenty-two strains of microorganisms were inoculated with a 10 μl calibrated loop according to the three-quadrant streaking method using bacterial suspensions at 0.5 McFarland.

MRSA 0303033 [2] = test: Peptidase detection on Columbia medium (Example 5)
Description: as §1, §2

[3] = tested on: Listeria monocytogenes 8812049; test: Peptidase detection on Columbia medium (Example 5)
Description: as §1, §2

[4] = tested on: Salmonella ser. Typhimurium 0801029; test: Peptidase detection on Columbia medium (Example 5); further: key: +++: good growth/high coloration strength; ++: medium growth/medium coloration strength; +: weak growth/weak coloration strength; −: no growth/no coloration
Description: as §1, §2

Candida glabrata 0408083 [5] = test: Peptidase detection on Columbia medium (Example 5); further: key: +++: good growth/high coloration strength; ++: medium growth/medium coloration strength; +: weak growth/weak coloration strength; −: no growth/no coloration
Description: as §1, §2

[6] = tested on: Staphylococcus epidermidis 0203050; test: Peptidase detection on Columbia medium (Example 5)
Description: as §1, §2

[7] = tested on: Enterobacter cloacae 0604040; test: Peptidase detection on Columbia medium (Example 5); further: key: +++: good growth/high coloration strength; ++: medium growth/medium coloration strength; +: weak growth/weak coloration strength; −: no growth/no coloration
Description: as §1, §2

[8] = tested on: Streptococcus pyogenes 9806380; test: Peptidase detection on Columbia medium (Example 5)
Description: as §1, §2

[9] = tested on: Staphylococcus aureus 7811049; test: Peptidase detection on Columbia medium (Example 5)
Description: as §1, §2

[10] = tested on: Morganella morganii 9207053; test: Peptidase detection on Columbia medium (Example 5)
Description: as §1, §2

[11] = tested on: Bacillus subtilis 0204038; test: Peptidase detection on Columbia medium (Example 5)
Description: as §1, §2

[12] = tested on: Klebsiella pneumoniae 0008009; test: Peptidase detection on Columbia medium (Example 5)
Description: as §1, §2

[13] = tested on: Citrobacter freundii 0006197; test: Peptidase detection on Columbia medium (Example 5)
Description: as §1, §2

[14] = tested on: Burkholderia cepacia 7507032; test: Peptidase detection on Columbia medium (Example 5)
Description: as §1, §2

[15] = tested on: Enterococcus faecalis 0008192; test: Peptidase detection on Columbia medium (Example 5)
Description: as §1, §2

[16] = tested on: Yersinia enterocolitica 7605019; test: Peptidase detection on Columbia medium (Example 5)
Description: as §1, §2

[17] = tested on: Enterococcus faecium 0610021; test: Peptidase detection on Columbia medium (Example 5)
Description: as §1, §2

[18] = tested on: Pseudomonas aeruginosa 0001001; test: Peptidase detection on Columbia medium (Example 5)
Description: as §1, §2

[19] = tested on: Acinetobacter baumannii 0604029; test: Peptidase detection on Columbia medium (Example 5)
Description: as §1, §2

[20] = tested on: Serratia marcescens 7303004; test: Peptidase detection on Columbia medium (Example 5)
Description: as §1, §2

Escherichia coli 0002005 [21] = test: Peptidase detection on Columbia medium (Example 5)
Description: as §1, §2

Candida albicans 0801025 [22] = test: Peptidase detection on Columbia medium (Example 5)
Description: as §1, §2

[23] = tested on: Providencia rettgeri 0706064; test: Peptidase detection on Columbia medium (Example 4)
Text: (§3) After homogenization, the media were distributed into 120-mm-squared dishes. A medium serving as a growth control (Columbia) and denoted C was also poured.

MRSA 0303033 [24] = test: Peptidase detection on Columbia medium (Example 4)
Text: as §3

[25] = tested on: Listeria monocytogenes 8812049; test: Peptidase detection on Columbia medium (Example 4)
Text: as §3

Candida glabrata 0408083 [26] = test: Peptidase detection on Columbia medium (Example 4)
Text: as §3

[27] = tested on: Staphylococcus epidermidis 0203050; test: Peptidase detection on Columbia medium (Example 4)
Text: as §3

[28] = tested on: Enterobacter cloacae 0604040; test: Peptidase detection on Columbia medium (Example 4)
Text: as §3

[29] = tested on: Streptococcus pyogenes 9806380; test: Peptidase detection on Columbia medium (Example 4)
Text: as §3

[30] = tested on: Staphylococcus aureus 7811049; test: Peptidase detection on Columbia medium (Example 4)
Text: as §3

[31] = tested on: Morganella morganii 9207053; test: Peptidase detection on Columbia medium (Example 4)
Text: as §3

[32] = tested on: Bacillus subtilis 0204038; test: Peptidase detection on Columbia medium (Example 4)
Text: as §3

[33] = tested on: Klebsiella pneumoniae 0008009; test: Peptidase detection on Columbia medium (Example 4)
Text: as §3

[34] = tested on: Salmonella ser typhimurium 0801029; test: Peptidase detection on Columbia medium (Example 4)
Text: as §3

[35] = tested on: Citrobacter freundii 0006197; test: Peptidase detection on Columbia medium (Example 4)
Text: as §3

[36] = tested on: Burkholderia cepacia 7507032; test: Peptidase detection on Columbia medium (Example 4)
Text: as §3

[37] = tested on: Enterococcus faecalis 0008192; test: Peptidase detection on Columbia medium (Example 4)
Text: as §3

[38] = tested on: Yersinia enterocolitica 7605019; test: Peptidase detection on Columbia medium (Example 4)
Text: as §3

[39] = tested on: Enterococcus faecium 0610021; test: Peptidase detection on Columbia medium (Example 4)
Text: as §3

[40] = tested on: Pseudomonas aeruginosa 0001001; test: Peptidase detection on Columbia medium (Example 4)
Text: as §3

[41] = tested on: Acinetobacter baumannii 0604029; test: Peptidase detection on Columbia medium (Example 4)
Text: as §3

[42] = tested on: Serratia marcescens 7303004; test: Peptidase detection on Columbia medium (Example 4)
Text: as §3

Escherichia coli 0002005 [43] = test: Peptidase detection on Columbia medium (Example 4)
Text: as §3

Candida albicans 0801025 [44] = test: Peptidase detection on Columbia medium (Example 4)
Text: as §3

C[C@H](N)C(=O)Nc1ccc(C=Cc2ccc3ccccc3[n+]2C)cc1.Cl.[Cl-] [L-alanyl-2-(4′-amidostyryl)-N-methylquinolinium (dichloride)]
orange: Color (MRSA 0303033 [2]) | Color [3] | Color [6] | Color [11] | Color [15] | Color [17] | Color [20]
+: Coloration strength (MRSA 0303033 [2]) | Coloration strength [3] | Growth ([3]; control C: +) | Growth (Candida glabrata 0408083 [5]; control C: +) | Coloration strength [6] | Growth ([8]; control C: +) | Coloration strength [11] | Coloration strength [15] | Growth ([15]; control C: +) | Growth ([16]; control C: +) | Coloration strength [17] | Growth ([17]; control C: +) | Coloration strength [20]
++: Growth ([1]; control C: ++) | Growth (MRSA 0303033 [2]; control C: ++) | Growth ([4]; control C: ++) | Growth ([6]; control C: ++) | Growth ([7]; control C: ++) | Growth ([9]; control C: ++) | Growth ([10]; control C: ++) | Growth ([11]; control C: ++) | Growth ([12]; control C: ++) | Growth ([13]; control C: ++) | Growth ([14]; control C: ++) | Growth ([18]; control C: ++) | Growth ([19]; control C: ++) | Growth ([20]; control C: ++) | Growth (Escherichia coli 0002005 [21]; control C: ++) | Growth (Candida albicans 0801025 [22]; control C: ++)
−: Coloration strength [1] | Coloration strength [4] | Coloration strength (Candida glabrata 0408083 [5]) | Coloration strength [7] | Coloration strength [8] | Coloration strength [9] | Coloration strength [10] | Coloration strength [12] | Coloration strength [13] | Coloration strength [14] | Coloration strength [16] | Coloration strength [18] | Coloration strength [19] | Coloration strength (Escherichia coli 0002005 [21]) | Coloration strength (Candida albicans 0801025 [22])

C[C@H](N)C(=O)N[C@@H](C)C(=O)Nc1ccc(C=Cc2cc[n+](C)c3ccccc23)cc1.Cl.[Cl-] [L-alanyl-L-alanyl-4-(4′-amidostyryl)-N-methylquinolinium (dichloride)]
++: Growth ([23]; control C: ++) | Growth (MRSA 0303033 [24]; control C: ++) | Growth ([25]; control C: ++) | Growth ([27]; control C: ++) | Growth ([28]; control C: ++) | Growth ([29]; control C: ++) | Growth ([30]; control C: ++) | Growth ([31]; control C: ++) | Growth ([32]; control C: ++) | Growth ([33]; control C: ++) | Growth ([34]; control C: ++) | Growth ([35]; control C: ++) | Growth ([36]; control C: ++) | Growth ([37]; control C: ++) | Growth ([38]; control C: ++) | Growth ([39]; control C: ++) | Growth ([40]; control C: ++) | Growth ([41]; control C: ++) | Growth ([42]; control C: ++) | Growth (Escherichia coli 0002005 [43]; control C: ++)
orange: Color [25] | Color [28] | Color [29] | Color [33] | Color [41] | Color [42]
−: Color [23] | Coloration strength [23] | Color (MRSA 0303033 [24]) | Coloration strength (MRSA 0303033 [24]) | Coloration strength (Candida glabrata 0408083 [26]) | Growth (Candida glabrata 0408083 [26]; control C: +) | Color [27] | Coloration strength [27] | Color [30] | Coloration strength [30] | Color [31] | Coloration strength [31] | Color [32] | Coloration strength [32] | Color [34] | Coloration strength [34] | Color [35] | Coloration strength [35] | Color [36] | Coloration strength [36] | Color [37] | Coloration strength [37] | Color [38] | Coloration strength [38] | Color [39] | Coloration strength [39] | Color [40] | Coloration strength [40] | Color (Escherichia coli 0002005 [43]) | Coloration strength (Escherichia coli 0002005 [43]) | Coloration strength (Candida albicans 0801025 [44])
+: Coloration strength [25] | Coloration strength [28] | Coloration strength [29] | Coloration strength [33] | Coloration strength [41] | Coloration strength [42] | Growth (Candida albicans 0801025 [44]; control C: ++)
